# Target: T1, CDK1/Cyclin B (Homo sapiens, UniProt P06493)
# T1 construct: purchased Invitrogen PR4768C
# Assay: Enzymatic assay for CDK1 (FRET based LANCE Ultra kinase assay)
# Assay type: biochemical
# Conditions: read-out: CDK1 enzymatic activity (IC50 range)
# Outline: (§1)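 LANCE Ultra TR-FRET: ULight-MBP peptide (68 nM) with ATP at Km, […], 60 min at 23° C. EDTA plus Eu-anti-phospho-MBP added, another 60 min, then 665/615 nm emission read. Compounds tested as 8-dose 4-fold DMSO dilutions.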
# T1 sequence (P06493 whole entry): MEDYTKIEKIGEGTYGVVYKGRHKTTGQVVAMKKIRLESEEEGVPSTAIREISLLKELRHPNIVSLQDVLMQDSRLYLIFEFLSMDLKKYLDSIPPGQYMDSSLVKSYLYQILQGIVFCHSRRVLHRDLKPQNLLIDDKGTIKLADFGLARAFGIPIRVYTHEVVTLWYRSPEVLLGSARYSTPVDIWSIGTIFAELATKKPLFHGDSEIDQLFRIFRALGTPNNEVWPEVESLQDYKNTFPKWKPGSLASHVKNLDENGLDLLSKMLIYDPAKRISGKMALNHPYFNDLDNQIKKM
# T1 sequence (P14635 whole entry partner): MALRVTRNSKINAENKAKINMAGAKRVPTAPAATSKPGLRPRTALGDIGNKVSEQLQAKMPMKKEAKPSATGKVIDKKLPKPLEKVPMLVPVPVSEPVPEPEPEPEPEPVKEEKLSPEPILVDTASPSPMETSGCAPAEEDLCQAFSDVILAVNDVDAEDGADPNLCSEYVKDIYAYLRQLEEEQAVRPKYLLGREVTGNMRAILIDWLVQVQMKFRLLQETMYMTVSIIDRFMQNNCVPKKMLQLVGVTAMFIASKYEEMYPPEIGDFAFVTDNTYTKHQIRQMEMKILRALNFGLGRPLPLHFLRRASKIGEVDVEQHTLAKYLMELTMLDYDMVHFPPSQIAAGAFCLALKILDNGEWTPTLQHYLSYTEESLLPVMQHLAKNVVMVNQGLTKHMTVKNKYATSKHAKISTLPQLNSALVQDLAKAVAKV
row,IC50 [nM],Compound
1,100 to 1000,CC(C)c1cnn2c(NCc3ccccc3-c3ccc4[nH]ncc4c3)nc(N3CCC(N)CC3)nc12 [Compound 137]
2,> 1000,CC(C)c1cnn2c(NCc3cccc4ccc(N)nc34)nc(N3CCC(N)CC3)nc12 [Compound 142]
3,100 to 1000,CC(C)c1cnn2c(NCc3ccccc3N3Cc4ccccc4C3)nc(N3CCC(N)CC3)nc12 [Compound 128]
4,> 1000,CC(C)c1cnn2c(NCc3ccccc3-c3[nH]c4ccccc4c3Cl)nc(N3CCC(N)CC3)nc12 [Compound 119]

# Tested on: RPMI-8226
# Assay: Cellular RPMI-8226 viability assay (CellTiter-Glo, 72 hours)
# Assay type: cell-based
# Conditions: Homo sapiens
# Protocol: All cell lines were routinely tested for mycoplasma.
# The effect of the CDK7 inhibitor to inhibit the growth of target cancer cells was evaluated through the 72 hours time period of viability assay. Briefly, the candidate cell line ware plated in 96 well plate at the following density of cells respectively. […] DMSO solvent without compound served as a control and final DMSO concentration less than 0.1%. After 72 hours of incubation at 37° C., 5% CO2 incubator, cells were analyzed for the viability using the CellTiter-Glo Luminescent Cell Viability Assay (Promega, Cat #G7570). All viability assays were performed in duplicate and Luminescence was read using an Envision (Perkin Elmer, USA). Data was analyzed using XLfit software.
row,IC50 [nM],Compound
1,< 1000,CC(C)c1cnn2c(NCc3ccccc3-c3ccc4[nH]ncc4c3)nc(N3CCC(N)CC3)nc12 [Compound 137]
2,1000 to 10000,CC(C)c1cnn2c(NCc3cccc4ccc(N)nc34)nc(N3CCC(N)CC3)nc12 [Compound 142]
3,< 1000,CC(C)c1cnn2c(NCc3ccccc3N3Cc4ccccc4C3)nc(N3CCC(N)CC3)nc12 [Compound 128]
4,1000 to 10000,CC(C)c1cnn2c(NCc3ccccc3-c3[nH]c4ccccc4c3Cl)nc(N3CCC(N)CC3)nc12 [Compound 119]

# Target: T2, CDK5/p25 (Homo sapiens, UniProt Q00535)
# T2 construct: purchased Invitrogen PR8543B
# Assay: Enzymatic assay for CDK5 (FRET based LANCE Ultra kinase assay)
# Assay type: biochemical
# Conditions: read-out: CDK5 enzymatic activity (IC50 range)
# Outline: as §1
# T2 sequence (Q00535 whole entry): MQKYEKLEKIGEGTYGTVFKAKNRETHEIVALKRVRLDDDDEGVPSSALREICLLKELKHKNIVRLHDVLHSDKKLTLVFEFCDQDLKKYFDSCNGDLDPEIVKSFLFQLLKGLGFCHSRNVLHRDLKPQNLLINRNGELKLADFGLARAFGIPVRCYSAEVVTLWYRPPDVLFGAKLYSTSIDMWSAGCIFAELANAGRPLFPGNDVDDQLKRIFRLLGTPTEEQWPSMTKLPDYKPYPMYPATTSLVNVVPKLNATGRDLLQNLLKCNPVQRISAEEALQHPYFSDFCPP
# T2 sequence (Q15078 99-307 partner limits assumed): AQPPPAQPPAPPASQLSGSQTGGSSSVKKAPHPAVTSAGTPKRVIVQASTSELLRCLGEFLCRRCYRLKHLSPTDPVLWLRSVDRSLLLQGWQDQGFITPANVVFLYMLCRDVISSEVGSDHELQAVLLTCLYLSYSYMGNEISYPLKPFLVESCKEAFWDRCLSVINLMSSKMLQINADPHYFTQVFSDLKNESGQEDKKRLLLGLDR
row,IC50 [nM],Compound
1,< 100,CC(C)c1cnn2c(NCc3ccccc3-c3ccc4[nH]ncc4c3)nc(N3CCC(N)CC3)nc12 [Compound 137]
2,100 to 1000,CC(C)c1cnn2c(NCc3cccc4ccc(N)nc34)nc(N3CCC(N)CC3)nc12 [Compound 142]
3,< 100,CC(C)c1cnn2c(NCc3ccccc3N3Cc4ccccc4C3)nc(N3CCC(N)CC3)nc12 [Compound 128]
4,100 to 1000,CC(C)c1cnn2c(NCc3ccccc3-c3[nH]c4ccccc4c3Cl)nc(N3CCC(N)CC3)nc12 [Compound 119]

# Target: T3, CDK2/Cyclin A (Homo sapiens, UniProt P24941)
# T3 construct: purchased Invitrogen PV6290
# Assay: Enzymatic assay for CDK2 (FRET based LANCE Ultra kinase assay)
# Assay type: biochemical
# Conditions: read-out: CDK2 enzymatic activity (IC50 range)
# Outline: as §1
row,IC50 [nM],Compound
1,< 100,CC(C)c1cnn2c(NCc3ccccc3-c3ccc4[nH]ncc4c3)nc(N3CCC(N)CC3)nc12 [Compound 137]
2,100 to 1000,CC(C)c1cnn2c(NCc3cccc4ccc(N)nc34)nc(N3CCC(N)CC3)nc12 [Compound 142]
3,100 to 1000,CC(C)c1cnn2c(NCc3ccccc3N3Cc4ccccc4C3)nc(N3CCC(N)CC3)nc12 [Compound 128]
4,100 to 1000,CC(C)c1cnn2c(NCc3ccccc3-c3[nH]c4ccccc4c3Cl)nc(N3CCC(N)CC3)nc12 [Compound 119]

# Target: T4, CDK7/Cyclin H/MNAT1 (Homo sapiens, UniProt P50613)
# T4 construct: purchased Invitrogen PR6749B
# Assay: Enzymatic assay for CDK7 (FRET based LANCE Ultra kinase assay)
# Assay type: biochemical
# Conditions: CDK7 over CDK1
# Outline: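 Inhibition was measured at Km ATP by time-resolved FRET between a Eu anti-phospho antibody and a phosphorylated ULight peptide. The enzyme was the purified CDK7/cyclin complex, and data were curve-fitted.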
# T4 sequence (P50613 whole entry): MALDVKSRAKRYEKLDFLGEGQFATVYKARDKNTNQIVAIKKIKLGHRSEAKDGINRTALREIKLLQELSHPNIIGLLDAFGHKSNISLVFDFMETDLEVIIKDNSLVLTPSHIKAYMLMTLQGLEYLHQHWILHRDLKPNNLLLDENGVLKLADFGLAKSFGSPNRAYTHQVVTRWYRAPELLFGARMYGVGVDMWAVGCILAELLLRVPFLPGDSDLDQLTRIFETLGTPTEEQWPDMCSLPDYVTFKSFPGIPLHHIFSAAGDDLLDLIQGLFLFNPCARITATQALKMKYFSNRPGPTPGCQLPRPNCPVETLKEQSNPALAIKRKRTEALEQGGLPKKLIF
# T4 sequence (P51946 whole entry partner): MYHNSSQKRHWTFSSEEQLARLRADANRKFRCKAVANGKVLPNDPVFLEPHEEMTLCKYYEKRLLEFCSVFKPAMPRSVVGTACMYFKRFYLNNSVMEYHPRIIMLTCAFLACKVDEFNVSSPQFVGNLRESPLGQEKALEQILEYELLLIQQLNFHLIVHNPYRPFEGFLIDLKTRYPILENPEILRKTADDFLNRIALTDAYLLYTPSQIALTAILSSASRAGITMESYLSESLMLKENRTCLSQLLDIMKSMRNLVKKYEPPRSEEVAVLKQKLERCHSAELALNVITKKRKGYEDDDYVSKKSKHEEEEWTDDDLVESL
# T4 sequence (P51948 whole entry partner): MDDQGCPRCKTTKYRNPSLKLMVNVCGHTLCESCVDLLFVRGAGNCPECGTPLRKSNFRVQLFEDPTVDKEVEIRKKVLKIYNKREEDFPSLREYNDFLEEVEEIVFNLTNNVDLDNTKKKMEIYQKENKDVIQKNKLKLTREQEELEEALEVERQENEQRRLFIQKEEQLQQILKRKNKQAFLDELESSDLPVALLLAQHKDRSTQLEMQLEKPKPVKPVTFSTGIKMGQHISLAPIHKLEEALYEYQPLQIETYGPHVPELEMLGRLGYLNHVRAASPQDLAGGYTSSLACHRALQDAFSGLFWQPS
row,CDK1/CDK7: Selectivity of CDK7 inhibition over CDK1 inhibition,Compound
1,C (C=less than 20 fold),CC(C)c1cnn2c(NCc3ccccc3-c3ccc4[nH]ncc4c3)nc(N3CCC(N)CC3)nc12 [Compound 137]
2,A (A=greater than 200 fold),CC(C)c1cnn2c(NCc3cccc4ccc(N)nc34)nc(N3CCC(N)CC3)nc12 [Compound 142]
3,A (A=greater than 200 fold),CC(C)c1cnn2c(NCc3ccccc3-c3[nH]c4ccccc4c3Cl)nc(N3CCC(N)CC3)nc12 [Compound 119]

row,Compound,CDK1/CDK7: Selectivity of CDK7 inhibition over CDK1 inhibition
1,CC(C)c1cnn2c(NCc3ccccc3N3Cc4ccccc4C3)nc(N3CCC(N)CC3)nc12 [Compound 128],"B (B=less than 200 fold, but greater than 20 fold)"

# Same assay, conditions: CDK7 over CDK2
row,Compound,CDK2/CDK7: Selectivity of CDK7 inhibition over CDK2 inhibition
1,CC(C)c1cnn2c(NCc3ccccc3-c3ccc4[nH]ncc4c3)nc(N3CCC(N)CC3)nc12 [Compound 137],C (C=less than 20 fold)
2,CC(C)c1cnn2c(NCc3cccc4ccc(N)nc34)nc(N3CCC(N)CC3)nc12 [Compound 142],"B (B=less than 200 fold, but greater than 20 fold)"
3,CC(C)c1cnn2c(NCc3ccccc3N3Cc4ccccc4C3)nc(N3CCC(N)CC3)nc12 [Compound 128],"B (B=less than 200 fold, but greater than 20 fold)"
4,CC(C)c1cnn2c(NCc3ccccc3-c3[nH]c4ccccc4c3Cl)nc(N3CCC(N)CC3)nc12 [Compound 119],"B (B=less than 200 fold, but greater than 20 fold)"

# Same assay, conditions: CDK7 over CDK5
row,Compound,CDK5/CDK7: Selectivity of CDK7 inhibition over CDK5 inhibition
1,CC(C)c1cnn2c(NCc3ccccc3-c3ccc4[nH]ncc4c3)nc(N3CCC(N)CC3)nc12 [Compound 137],C (C=less than 20 fold)
2,CC(C)c1cnn2c(NCc3cccc4ccc(N)nc34)nc(N3CCC(N)CC3)nc12 [Compound 142],"B (B=less than 200 fold, but greater than 20 fold)"
3,CC(C)c1cnn2c(NCc3ccccc3N3Cc4ccccc4C3)nc(N3CCC(N)CC3)nc12 [Compound 128],C (C=less than 20 fold)
4,CC(C)c1cnn2c(NCc3ccccc3-c3[nH]c4ccccc4c3Cl)nc(N3CCC(N)CC3)nc12 [Compound 119],"B (B=less than 200 fold, but greater than 20 fold)"

# Same assay, conditions: read-out: CDK7 enzymatic activity (IC50 range)
row,IC50 [nM],Compound
1,< 100,CC(C)c1cnn2c(NCc3ccccc3-c3ccc4[nH]ncc4c3)nc(N3CCC(N)CC3)nc12 [Compound 137]
2,< 100,CC(C)c1cnn2c(NCc3cccc4ccc(N)nc34)nc(N3CCC(N)CC3)nc12 [Compound 142]
3,< 100,CC(C)c1cnn2c(NCc3ccccc3N3Cc4ccccc4C3)nc(N3CCC(N)CC3)nc12 [Compound 128]
4,< 100,CC(C)c1cnn2c(NCc3ccccc3-c3[nH]c4ccccc4c3Cl)nc(N3CCC(N)CC3)nc12 [Compound 119]

# Tested on: MV4-11
# Assay: Cellular MV4-11 viability assay (CellTiter-Glo, 72 hours)
# Assay type: cell-based
# Conditions: Homo sapiens
# Outline: (§2)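 CellTiter-Glo luminescence read in duplicate after 72 h compound exposure (37 °C, 5% CO2); DMSO-only control, final DMSO under 0.1%.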
row,IC50 [nM],Compound
1,< 1000,CC(C)c1cnn2c(NCc3ccccc3N3Cc4ccccc4C3)nc(N3CCC(N)CC3)nc12 [Compound 128]
2,1000 to 10000,CC(C)c1cnn2c(NCc3ccccc3-c3[nH]c4ccccc4c3Cl)nc(N3CCC(N)CC3)nc12 [Compound 119]

# Tested on: H460
# Assay: Cellular H460 viability assay (CellTiter-Glo, 72 hours)
# Assay type: cell-based
# Conditions: Homo sapiens, NCI-H460
# Outline: as §2
row,IC50 [nM],Compound
1,< 1000,CC(C)c1cnn2c(NCc3ccccc3-c3ccc4[nH]ncc4c3)nc(N3CCC(N)CC3)nc12 [Compound 137]
2,1000 to 10000,CC(C)c1cnn2c(NCc3cccc4ccc(N)nc34)nc(N3CCC(N)CC3)nc12 [Compound 142]
3,< 1000,CC(C)c1cnn2c(NCc3ccccc3N3Cc4ccccc4C3)nc(N3CCC(N)CC3)nc12 [Compound 128]
4,< 1000,CC(C)c1cnn2c(NCc3ccccc3-c3[nH]c4ccccc4c3Cl)nc(N3CCC(N)CC3)nc12 [Compound 119]
